Assay results from patent US9808433B2, “Combination of a centrally-acting analgesic and a selective cyclooxygenase-2 inhibitor anti-inflammatory agent for the treatment of inflammation and pain in the veterinary field” (FORMEVET S.R.L., priority 2010, dated 2017).

Experiments:
[1] = test system: inflammatory oedema of the CFA-injected hind paw; experiment: Complete Freund adjuvant (CFA) induced paw inflammation (oedema) in the rat, plethysmometer; type: in vivo, Sprague-Dawley rats; settings: for ml (inflamed paw/normal paw), intensity of oedema: day 3 after CFA, mean ± SD
Procedure: An inflammation model extensively used and validated in the rat was used for the study.
Sprague-Dawley rats weighing 200-250 grams were used. The animals were housed in groups of 4 to a cage, at the temperature of 22° C.±2° C., with a light-dark cycle of 12/12-hour and unlimited access to food and water. The animals were used after a week's acclimatisation in the housing facility. Each test group consisted of 8 rats.
Inflammation was induced in one limb of the rat by administering a suspension of complete Freund adjuvant (CFA) containing 0.1 mg/0.1 ml of inactivated mycobacterium tuberculosis (H37Ra, ATCC 25177), in paraffin oil and mannide monooleate. The CFA was injected into the plantar surface of the left hind paw of the rat. This method induces reproducible inflammation characterised by oedema and pain.
All the medicaments were administered 3 days after the inflammation was induced with CFA. The Firocoxib was resuspended in a carrier consisting of 0.5% methocel, and administered orally in the volume of 1 ml at the doses of 2.5 and 5 mg/Kg.
The dose of 2.5 mg/Kg was combined with Tramadol at the dose of 4 mg/Kg. Tramadol dissolved in saline was administered by the intraperitoneal route (i.p., 0.2 ml/100 grams of weight) 30 minutes […] the Firocoxib. Inflammatory oedema was evaluated 1 hour after the Tramadol, corresponding to 90 minutes after the Firocoxib. […] The control animals were treated per os with the carrier, and i.p. with the same volume of saline.
The intensity of the oedema was measured on day 3 after intraplantar administration of CFA, 90 minutes after Firocoxib, corresponding to 1 hour after i.p. administration of Tramadol. We chose to evaluate the oedema 3 days after it was induced, because it is largest at this time. The paw swelling (oedema) was evaluated by measuring the volume of both hind paws using a specific instrument, the plethysmometer (7150 plethysmometer, Basile, Comerio, Italy). The results are expressed as the algebraic difference between the volume in ml of the inflamed paw (injected with CFA) and the normal uninflamed paw: the greater the difference, the larger the oedema present.
The values are the mean±SD of 8/10 rats.
The significance of the anti-inflammatory activity was evaluated with the Analysis of Variance (ANOVA) test, followed by the Bonferroni multiple comparison test. ANOVA test is the most suitable statistical test when more than 2 treatment groups are present. It is a restrictive test because it takes account of the variability of all the trial groups.

COX-1 = molecular target: T1, COX-1 (Canis lupus familiaris, UniProt Q8HZR1); settings: dog, low therapeutic doses; cited from earlier work
T1 sequence (Q8HZR1 28-603): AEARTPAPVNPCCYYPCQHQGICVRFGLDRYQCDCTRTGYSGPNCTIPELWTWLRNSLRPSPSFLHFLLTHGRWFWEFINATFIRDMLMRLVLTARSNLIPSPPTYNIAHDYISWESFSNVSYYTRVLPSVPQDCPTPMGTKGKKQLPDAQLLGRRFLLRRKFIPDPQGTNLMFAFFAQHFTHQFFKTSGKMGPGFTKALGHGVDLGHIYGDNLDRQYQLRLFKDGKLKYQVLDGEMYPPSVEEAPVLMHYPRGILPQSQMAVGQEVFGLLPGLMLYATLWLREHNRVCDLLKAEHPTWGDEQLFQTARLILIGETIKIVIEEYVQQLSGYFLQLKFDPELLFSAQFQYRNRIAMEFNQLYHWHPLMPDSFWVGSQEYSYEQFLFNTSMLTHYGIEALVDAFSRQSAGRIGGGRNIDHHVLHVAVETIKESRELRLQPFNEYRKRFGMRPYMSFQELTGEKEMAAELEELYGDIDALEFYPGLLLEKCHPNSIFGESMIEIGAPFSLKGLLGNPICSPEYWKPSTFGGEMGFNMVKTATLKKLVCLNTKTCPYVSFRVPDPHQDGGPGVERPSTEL

[2] = cited from earlier work

Structure (SMILES) | anti-inflammatory effect (in words) ([1]; Firocoxib 2.5 mg/kg alone) | ml (inflamed paw/normal paw), intensity of oedema ([1]; Firocoxib 2.5 mg/kg p.o. alone, 90 min after Firocoxib) [mL] | ml (inflamed paw/normal paw), intensity of oedema ([1]; Firocoxib 5 mg/Kg p.o. alone, 90 min after Firocoxib, p < 0.01 vs saline) [mL] | inhibition at 5 mg/kg ([1]; Rattus norvegicus, Firocoxib 5.0 mg/kg alone) [%] | inhibition of COX-1 (in words) (COX-1) | anti-inflammatory effect (in words) ([1]; Tramadol 4 mg/kg alone) | ml (inflamed paw/normal paw), intensity of oedema ([1]; Tramadol 4 mg/kg i.p. alone, 60 min after Tramadol) [mL] | bond with plasma proteins ([2]; in vivo) | elimination half-life ([2]; in vivo) [h] | time to peak plasma concentration ([2]; in vivo) [h] | absorption after oral administration ([2]; oral, regardless of the formulation used)
CC1(C)OC(=O)C(OCC2CC2)=C1c1ccc(S(C)(=O)=O)cc1 [Firocoxib] | completely lost its anti-inflammatory effect | 0.83 ± 0.05 | 0.42 ± 0.08 | ~50 | do not significantly inhibit COX-1 |  |  |  |  |  | 
COc1cccc(C2(O)CCCCC2CN(C)C)c1 (centres unmarked) [Tramadol] |  |  |  |  |  | no anti-inflammatory effect | 0.80 ± 0.06 | low | 1.5 to 7 | ≤ 2 | very good absorption
